In article PMC6480153, “Discovery of Novel Triazole-Containing Pyrazole Ester Derivatives as Potential Antibacterial Agents” (Molecules, 2019):
≈ marks a conversion by molar mass, not a printed value. Read-outs that look alike come from different tables or passages of the source.

What was measured:
[1] = tested on: Salmonella gallinarum (ATCC-9184); assay: MIC by agar-dilution method against Salmonella gallinarum; assay type: cell-based; conditions: 24 h; for MIC: Salmonella enterica, read-out: MIC S.e
Protocol: (§1) In vitro antimicrobial activity of the prepared compounds against four bacteria was evaluated by the conventional agar-dilution method. Ciprofloxacin was selected as a reference standard.
(§2) The solid media Luria-Bertani (LB)-Broth-Agar-Medium (tryptone 10 g/L, yeast 5 g/L, NaCl 10 g/L, agar 15 g/L, and distilled water 1000 mL, adjusted to pH 7.4 was used for testing the antibacterial activity.
(§3) The in vitro antibacterial activity for synthesized compounds 4a–m were evaluated using the agar-dilution method. […] Drugs (10.0 mg) were dissolved in DMSO (1 mL) and the solution was diluted with water (9 mL). […] The bacterial inocula were prepared by suspending 24 h-old bacterial colonies from LB-Broth-Agar-Medium in 0.85% saline. The inocula were adjusted to 0.5 McFarland Standard ([…]). The suspensions were then diluted in 0.85% saline to give 10^7 CFU/mL. Petri dishes were spot-inoculated with 1 μL of each of the prepared bacterial suspensions (10^4 CFU/spot) and incubated at 37 °C for 24 h. […] A control test was also performed with test medium supplemented with DMSO at the same dilutions as used in the experiment in order to ensure that the solvent had no influence on bacterial growth.

[2] = tested on: Listeria monocytogenes (ATCC-15313); assay: MIC by agar-dilution method against Listeria monocytogenes; assay type: cell-based; conditions: for MIC: read-out: MIC L.m
Protocol: as §1, §2, §3

[3] = tested on: Staphylococcus aureus (ATCC-12600); assay: MIC by agar-dilution method against Staphylococcus aureus; assay type: cell-based; conditions: for MIC: ATCC12600
Protocol: as §1, §2, §3

[4] = tested on: Escherichia coli (ATCC-25922); assay: MIC by agar-dilution method against Escherichia coli; assay type: cell-based; conditions: 24 h; for MIC E. c: 37 °C
Protocol: as §1, §2, §3

[5] = molecular target: T1, topoisomerase IV (Escherichia coli, UniProt P0AFI2+P20083); assay: Topoisomerase IV decatenation inhibition, gel electrophoresis; assay type: biochemical; conditions: Topoisomerase IV decatenation activity, enzyme isolated from Escherichia coli
T1 construct: First, the E. coli suspension is extracted to obtain a crude enzyme solution; endogenous in cells
Protocol: (§4) In order to determine the relationship between compounds and antibacterial activity, the inhibitory activity of selected compounds (4d and 4k) against DNA gyrase and topoisomerase IV isolated from Escherichia coli was examined.
(§5) The in vitro antibacterial activity of the target compounds was carried out on by the methods of Sato et al. and Peng and Marians. First, the E. coli suspension is extracted to obtain a crude enzyme solution. After the purification step, the selected compounds are determined by gel electrophoresis to obtain data of different gradient concentrations, thereby calculating the IC50 values.

[6] = molecular target: T2, DNA gyrase (Escherichia coli, UniProt P0AES4+P0AES6); assay: DNA gyrase (topoisomerase II) supercoiling inhibition, gel electrophoresis; assay type: biochemical; conditions: Topoisomerase II supercoiling activity; enzyme isolated from Escherichia coli
T2 construct: First, the E. coli suspension is extracted to obtain a crude enzyme solution; endogenous in cells
Protocol: as §4, §5

[7] = Salmonella gallinarum ATCC-9184, agar dilution, 37 °C
[8] = Listeria monocytogenes ATCC-15313, agar dilution, 37 °C, 24 h
[9] = Staphylococcus aureus ATCC-12600, agar dilution, 37 °C, 24 h

T2 sequence (P0AES4 whole entry, one chain of several): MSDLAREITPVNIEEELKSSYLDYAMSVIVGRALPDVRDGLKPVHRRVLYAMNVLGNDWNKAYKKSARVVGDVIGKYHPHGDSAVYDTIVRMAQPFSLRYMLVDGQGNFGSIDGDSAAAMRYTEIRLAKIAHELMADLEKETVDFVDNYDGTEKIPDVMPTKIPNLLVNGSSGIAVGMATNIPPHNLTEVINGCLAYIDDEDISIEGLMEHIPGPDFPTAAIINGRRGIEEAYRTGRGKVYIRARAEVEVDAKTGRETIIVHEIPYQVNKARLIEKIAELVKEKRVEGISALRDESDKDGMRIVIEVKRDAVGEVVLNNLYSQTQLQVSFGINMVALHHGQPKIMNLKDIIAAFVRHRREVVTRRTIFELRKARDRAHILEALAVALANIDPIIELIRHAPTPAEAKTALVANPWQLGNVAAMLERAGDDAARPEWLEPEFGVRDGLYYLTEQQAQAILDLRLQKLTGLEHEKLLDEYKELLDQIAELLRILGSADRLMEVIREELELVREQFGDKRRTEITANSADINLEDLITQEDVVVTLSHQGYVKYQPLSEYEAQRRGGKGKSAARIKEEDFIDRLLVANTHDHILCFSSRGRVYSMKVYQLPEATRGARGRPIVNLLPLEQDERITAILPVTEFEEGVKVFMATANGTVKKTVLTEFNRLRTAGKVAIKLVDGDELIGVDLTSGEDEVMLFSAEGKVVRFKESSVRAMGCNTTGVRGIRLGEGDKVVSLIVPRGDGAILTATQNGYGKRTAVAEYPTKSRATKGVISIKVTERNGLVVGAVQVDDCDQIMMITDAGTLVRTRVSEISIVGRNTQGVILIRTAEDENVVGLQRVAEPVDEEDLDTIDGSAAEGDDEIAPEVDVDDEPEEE
T1 sequence (P20083 whole entry): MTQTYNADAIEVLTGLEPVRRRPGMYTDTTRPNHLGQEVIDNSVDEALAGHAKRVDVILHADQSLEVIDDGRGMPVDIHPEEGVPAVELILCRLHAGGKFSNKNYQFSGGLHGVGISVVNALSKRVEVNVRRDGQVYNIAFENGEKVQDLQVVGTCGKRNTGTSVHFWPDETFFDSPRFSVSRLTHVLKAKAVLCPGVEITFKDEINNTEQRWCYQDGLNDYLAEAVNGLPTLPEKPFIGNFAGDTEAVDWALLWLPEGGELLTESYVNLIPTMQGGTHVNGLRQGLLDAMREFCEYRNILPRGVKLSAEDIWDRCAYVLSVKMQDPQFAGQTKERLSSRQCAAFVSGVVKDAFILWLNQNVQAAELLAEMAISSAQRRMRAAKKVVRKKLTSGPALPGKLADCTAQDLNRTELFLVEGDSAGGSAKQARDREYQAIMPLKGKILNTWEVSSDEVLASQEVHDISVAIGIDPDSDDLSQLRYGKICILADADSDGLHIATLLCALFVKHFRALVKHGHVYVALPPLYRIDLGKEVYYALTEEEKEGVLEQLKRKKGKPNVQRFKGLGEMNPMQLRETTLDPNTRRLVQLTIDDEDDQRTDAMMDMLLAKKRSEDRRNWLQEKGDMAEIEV
T1 sequence (P0AFI2 whole entry): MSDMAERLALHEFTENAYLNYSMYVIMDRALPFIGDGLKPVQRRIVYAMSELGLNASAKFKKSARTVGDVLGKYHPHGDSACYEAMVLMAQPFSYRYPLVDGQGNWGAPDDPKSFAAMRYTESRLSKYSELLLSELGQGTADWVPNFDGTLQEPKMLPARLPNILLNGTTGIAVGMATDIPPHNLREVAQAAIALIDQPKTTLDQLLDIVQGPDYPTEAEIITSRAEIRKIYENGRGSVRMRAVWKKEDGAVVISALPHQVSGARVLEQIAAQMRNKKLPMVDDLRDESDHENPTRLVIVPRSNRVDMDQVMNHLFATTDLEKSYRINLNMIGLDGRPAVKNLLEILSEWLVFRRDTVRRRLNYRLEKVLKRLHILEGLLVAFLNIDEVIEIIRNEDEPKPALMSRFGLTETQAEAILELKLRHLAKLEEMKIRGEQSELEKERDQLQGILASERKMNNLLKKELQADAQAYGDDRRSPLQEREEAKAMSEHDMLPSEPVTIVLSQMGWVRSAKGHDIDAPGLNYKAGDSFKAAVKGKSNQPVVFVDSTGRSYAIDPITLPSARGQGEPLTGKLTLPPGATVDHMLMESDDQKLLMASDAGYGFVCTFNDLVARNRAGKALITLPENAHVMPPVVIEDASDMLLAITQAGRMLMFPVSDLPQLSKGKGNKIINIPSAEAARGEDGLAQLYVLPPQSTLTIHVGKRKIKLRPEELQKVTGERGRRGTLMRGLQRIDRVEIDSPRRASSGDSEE

O=C(O)c1cn(C2CC2)c2cc(N3CCNCC3)c(F)cc2c1=O [CIP, Ciprofloxacin, reference compound]
MIC [1]: 0.25 µg/mL (≈ 0.754 µM) | MIC ([2]; Listeria monocytogenes, ATCC15313, 24 h): 1 µg/mL (≈ 3.02 µM)

Cc1ccc(-n2cnc(OC(=O)c3c(C)nn(-c4ccc(F)cc4)c3Cl)n2)cc1 [Compound 4l, 1-(p-tolyl)-1H-1,2,4-triazol-3-yl5-chloro-1-(4-fluorophenyl)-3-methyl-1H-pyrazole-4-carboxylate]
MIC S.e [1, 7]: 32 µg/mL (≈ 77.7 µM) | MIC L.m [2, 8]: 64 µg/mL (≈ 155 µM) | MIC S.a [3, 9]: 32 µg/mL (≈ 77.7 µM) | MIC E. c [4]: 32 µg/mL (≈ 77.7 µM)

Cc1nn(-c2ccccc2)c(Cl)c1C(=O)Oc1ncn(-c2ccccc2)n1 [Compound 4a, 1-phenyl-1H-1,2,4-triazol-3-yl5-chloro-3-methyl-1-phenyl-1H-pyrazole-4-carboxylate]
MIC S.e [1, 7]: 16 µg/mL (≈ 42.1 µM) | MIC L.m [2, 8]: 16 µg/mL (≈ 42.1 µM) | MIC S.a [3, 9]: 16 µg/mL (≈ 42.1 µM) | MIC E. c [4]: 8 µg/mL (≈ 21.1 µM)

Cc1nn(-c2ccccc2)c(Cl)c1C(=O)Oc1ncn(-c2ccc(F)cc2)n1 [Compound 4e, 1-(4-fluorophenyl)-1H-1,2,4-triazol-3-yl5-chloro-3-methyl-1-phenyl-1H-pyrazole-4-carboxylate]
MIC S.e [1, 7]: 32 µg/mL (≈ 80.4 µM) | MIC L.m [2, 8]: 32 µg/mL (≈ 80.4 µM) | MIC S.a [3, 9]: 64 µg/mL (≈ 161 µM) | MIC E. c [4]: 32 µg/mL (≈ 80.4 µM)

Cc1ccc(-n2cnc(OC(=O)c3c(C)nn(-c4ccccc4)c3Cl)n2)cc1 [Compound 4k, 1-(p-tolyl)-1H-1,2,4-triazol-3-yl-5-chloro-3-methyl-1-phenyl-1H-pyrazole-4-carboxylate]
MIC S.e [1, 7]: 4 µg/mL (≈ 10.2 µM) | IC50 Topo IV [5]: 33.1 µg/mL (≈ 84 µM) | MIC L.m [2, 8]: 8 µg/mL (≈ 20.3 µM) | IC50 Gyrase [6]: 25.7 µg/mL (≈ 65.3 µM) | MIC S.a [3, 9]: 4 µg/mL (≈ 10.2 µM) | MIC E. c [4]: 4 µg/mL (≈ 10.2 µM)

Cc1ccc(-n2nc(C)c(C(=O)Oc3ncn(-c4ccccc4)n3)c2Cl)cc1 [Compound 4d, 1-phenyl-1H-1,2,4-triazol-3-yl5-chloro-3-methyl-1-(p-tolyl)-1H-pyrazole-4-carboxylate]
MIC [1, 7]: 0.5 µg/mL (≈ 1.27 µM) | IC50 ([5]; read-out: IC50 Topo IV (converted)): 61.4 µM | MIC ([2]; ATCC15313, Listeria monocytogenes ATCC-15313, agar dilution, 37 °C, 24 h): 2 µg/mL (≈ 5.08 µM) | IC50 [6]: 34.3 µM | MIC ([3]; Staphylococcus aureus ATCC-12600, agar dilution, 37 °C, 24 h, read-out: MIC S.a): 4 µg/mL (≈ 10.2 µM) | MIC ([3]; Staphylococcus aureus, range stated in text for three compounds, read-out: MIC against Staphylococcus aureus): 4 to 8 µg/mL (≈ 10.2 to 20.3 µM) | melting point: 154 to 156 °C | MIC ([4]; ATCC25922, 37 °C): 4 µg/mL (≈ 10.2 µM)

Cc1nn(-c2ccc(F)cc2)c(Cl)c1C(=O)Oc1ncn(-c2ccc(F)cc2)n1 [Compound 4f, 1-(4-fluorophenyl)-1H-1,2,4-triazol-3-yl5-chloro-1-(4-fluorophenyl)-3-methyl-1H-pyrazole-4-carboxylate]
MIC S.e [1, 7]: >128 µg/mL | MIC L.m [2, 8]: >128 µg/mL | MIC S.a [3, 9]: >128 µg/mL | MIC E. c [4]: >128 µg/mL

Cc1nn(-c2ccc(Cl)cc2)c(Cl)c1C(=O)Oc1ncn(-c2ccc(F)cc2)n1 [Compound 4g, 1-(4-fluorophenyl)-1H-1,2,4-triazol-3-yl5-chloro-1-(4-chlorophenyl)-3-methyl-1H-pyrazole-4-carboxylate]
MIC S.e [1, 7]: 64 µg/mL (≈ 148 µM) | MIC L.m [2, 8]: 64 µg/mL (≈ 148 µM) | MIC S.a [3, 9]: 64 µg/mL (≈ 148 µM) | MIC E. c [4]: 64 µg/mL (≈ 148 µM)

Cc1ccc(-n2nc(C)c(C(=O)Oc3ncn(-c4ccc(F)cc4)n3)c2Cl)cc1 [Compound 4h, 1-(4-fluorophenyl)-1H-1,2,4-triazol-3-yl5-chloro-3-methyl-1-(p-tolyl)-1H-pyrazole-4-carboxylate]
MIC S.e [1, 7]: 32 µg/mL (≈ 77.7 µM) | MIC L.m [2, 8]: 16 µg/mL (≈ 38.9 µM) | MIC S.a [3, 9]: 8 µg/mL (≈ 19.4 µM) | MIC E. c [4]: 32 µg/mL (≈ 77.7 µM)

Cc1nn(-c2ccc(Cl)cc2)c(Cl)c1C(=O)Oc1ncn(-c2ccccc2)n1 [Compound 4c, 1-phenyl-1H-1,2,4-triazol-3-yl5-chloro-1-(4-chlorophenyl)-3-methyl-1H-pyrazole-4-carboxylate]
MIC S.e [1, 7]: 64 µg/mL (≈ 154 µM) | MIC L.m [2, 8]: >128 µg/mL | MIC S.a [3, 9]: 64 µg/mL (≈ 154 µM) | MIC E. c [4]: 64 µg/mL (≈ 154 µM)

Cc1nn(-c2ccc(F)cc2)c(Cl)c1C(=O)Oc1ncn(-c2ccc(Cl)cc2)n1 [Compound 4i, 1-(4-chlorophenyl)-1H-1,2,4-triazol-3-yl5-chloro-1-(4-fluorophenyl)-3-methyl-1H-pyrazole-4-carboxylate]
MIC S.e [1, 7]: 64 µg/mL (≈ 148 µM) | MIC L.m [2, 8]: 64 µg/mL (≈ 148 µM) | MIC S.a [3, 9]: >128 µg/mL | MIC E. c [4]: >128 µg/mL

Cc1nn(-c2ccc(F)cc2)c(Cl)c1C(=O)Oc1ncn(-c2ccccc2)n1 [Compound 4b, 1-phenyl-1H-1,2,4-triazol-3-yl5-chloro-1-(4-fluorophenyl)-3-methyl-1H-pyrazole-4-carboxylate]
MIC S.e [1, 7]: 64 µg/mL (≈ 161 µM) | MIC L.m [2, 8]: >128 µg/mL | MIC S.a [3, 9]: >128 µg/mL | MIC E. c [4]: 64 µg/mL (≈ 161 µM)

Cc1nn(-c2ccc(Cl)cc2)c(Cl)c1C(=O)Oc1ncn(-c2ccc(Cl)cc2)n1 [Compound 4j, 1-(4-chlorophenyl)-1H-1,2,4-triazol-3-yl5-chloro-1-(4-chlorophenyl)-3-methyl-1H-pyrazole-4-carboxylate]
MIC S.e [1, 7]: 32 µg/mL (≈ 71.3 µM) | MIC L.m [2, 8]: 64 µg/mL (≈ 143 µM) | MIC S.a [3, 9]: 64 µg/mL (≈ 143 µM) | MIC E. c [4]: 64 µg/mL (≈ 143 µM)
